# From patent publication US10000765B2, “Gene encoding cytochrome P450, and use thereof” (NATIONAL INSTITUTE OF AGROBIOLOGICAL SCIENCES, priority 2011, dated 2018)
# Tests used:
# [1] = tested on: Nipponbare and Kasalath calluses with GFP overexpression construct; test: Callus growth test on BS-containing medium, GFP overexpression construct; assay type: cell-based, Oryza sativa; settings: medium containing 0.25, 0.5, or 0.75 μM BS
# Description: (§1) According to Example 5, an HptII::35Spro::Kasalath CYP72A31::Tnos vector plasmid (pCAMBIA1390-KasCYP72A31, a kasCYP72A31 overexpression construct) or, as a control, an HptII::35Spro::sGFP::Tnos vector plasmid (pCAMBIA1390-sGFP, an sGFP overexpression construct) was introduced into a rice variety (cultivars: Nipponbare and Kasalath) by using an Agrobacterium method. Transformed calluses selected with 50 ppm hygromycin were isolated, and transplanted onto a bispyribac-sodium (BS)-containing medium to examine callus growth.
# [2] = tested on: Wild-type rice (Nipponbare); test: Drug sensitivity test on gellan gum medium, wild-type rice; assay type: in vivo, Oryza sativa; settings: plant height compared with drug-free medium
# Method: Next, 1.6 g of Hoagland's mix (Sigma-Aldrich Corporation) and 3 g of Gelrite (Wako Pure Chemical Industries, Ltd.) were suspended in 1 L of distilled water. Then, the mixture was dissolved and heated in a microwave. After that, the mixture was cooled to 50 to 60 degree C., and BS was added at a final concentration of 1 μM. This mixture was dispensed into 30-mL tubular bottles at 15 mL to prepare a gellan gum medium. Next, CSSL rice paddies were soaked in 0.5% sodium hypochlorite for about 20 minutes, and were then washed well with water. These paddies were soaked in distilled water, and kept at 27 degree C. for 3 to 5 days for germination. Germinating seeds were softly planted in sprout-side up on the gellan gum medium. These samples, together with a beaker filled with distilled water, were placed in a transparent case, which was then covered with a clear-plastic wrap. These samples were grown at 27 degree C. under fluorescent light illumination (14 hours of a light period and 10 hours of a dark period) for 7 to 9 days.
# According to the method of Example 1, a gellan gum medium containing a test drug at a concentration of 0.01, 0.1, 1, or 10 μM was prepared. Rice seeds were sterilized, germinated, seeded in the medium, and cultivated.
# [3] = tested on: Arabidopsis thaliana (K31-4-2) transformed with a Kasalath-derived CYP72A31 gene; test: Drug sensitivity test on drug-containing MS medium, Arabidopsis thaliana transformed with Kasalath-derived CYP72A31 gene; assay type: in vivo; settings: for Ratio of sensitivity: K31-4-2 / NT
# Method: A bag of mixed salts for Murashige-Skoog (MS) medium (manufactured by Wako Pure Chemical Industries, Ltd.) 20 g of sucrose, 3 mg of thiamin hydrochloride, 5 mg of nicotinic acid, and 0.5 mg of pyridoxine hydrochloride were dissolved in distilled water, and filled up to 1 L with distilled water. After pH adjustment to 5.8 to 6.3 with 1 M KOH, 3 g of Gelrite was added to the solution, and dissolved using a microwave. After that, the mixture was autoclaved to prepare a sterile MS medium. A test drug was added to this sterile MS medium so as to make a final concentration of 1.3, 4.1, 12, 37, 110, or 330 nM. Arabidopsis thaliana from a sterilized seed was seeded in the drug-containing MS medium, and cultivated at 22° C. for 12 to 14 days in a continuous light period.
# Note that the drugs used in this Example were bispyribac-sodium, pyrithiobac-sodium, pyriminobac, bensulfuron-methyl, penoxsulam, pyrazosulfuron-ethyl, amidosulfuron, imazosulfuron, nicosulfuron, and propyrisulfuron.
# [4] = tested on: Rice (Nipponbare) calluses transformed with pCAMBIA1390-KasCYP72A31; test: Redifferentiation and rooting test, rice callus transformed with pCAMBIA1390-KasCYP72A31; assay type: cell-based, Oryza sativa
# Method: After selective culturing, the callus was transplanted onto a rice redifferentiation medium RE-III (containing 50 ppm hygromycin or 0.25 μM bispyribac sodium), cultured at 27 degree C. under 16L/8D conditions, and led to redifferentiate. The callus was plated after 2 weeks. At additional about 2 to 3 weeks, a redifferentiated, transformed rice (T0) was obtained. Once a differentiated shoot and/or root had appeared, the rice was transplanted onto a hormone-free (HF) medium (containing 50 ppm hygromycin or 0.25 μM bispyribac sodium).
# According to Example 5, an HptII::35Spro::Kasalath CYP72A31::Tnos vector plasmid (pCAMBIA1390-KasCYP72A31, a kasCYP72A31 overexpression construct) or, as controls, an HptII::35Spro::sGFP::Tnos vector plasmid (pCAMBIA1302-sGFP, an sGFP overexpression construct) or an OsALS (W548L/S627I)::OsAct-1pro::sGFP::Tnos vector plasmid (pSTARA-sGFP, a BS-resistant construct) was introduced into a rice variety (a cultivar: Nipponbare) by using an Agrobacterium method. According to a schedule designated in FIG. 12A), transformed calluses were selected with 50 ppm hygromycin. […] Of all the calluses, 43 calluses were transplanted onto a redifferentiation medium containing 0.25 μM BS.
# Rice (Nipponbare) calluses transformed with a pCAMBIA1390-KasCYP72A31 construct in Example 8 were obtained by 50 ppm hygromycin selection. When these calluses were transplanted onto a redifferentiation medium containing 50 ppm hygromycin, shoots and roots were differentiated from the callus at a redifferentiation efficiency of 95% (38/40 calluses). Subsequently, 25 redifferentiation calluses transformed with a pCAMBIA1390-KasCYP72A31 construct were transplanted onto a hormone-free medium containing 1 μM BS. As a result, 7 calluses had extending roots (a root extension rate of 28%. FIG. 15).
# [5] = tested on: Nipponbare and Kasalath calluses with CYP72A31 overexpression construct; test: Callus growth test on BS-containing medium, Kasalath CYP72A31 overexpression construct; assay type: cell-based, Oryza sativa; settings: medium containing 0.25, 0.5, or 0.75 μM BS
# Description: as §1
structure (smiles),measurement,setting,value
"COc1cc(OC)nc(Oc2cccc(Oc3nc(OC)cc(OC)n3)c2C(=O)O)n1 [BS, bispyribac sodium]",Callus growth,[1],inhibited their growth
same,CK ratio (%),[2]; drug 0.01 μM,82%
same,CK ratio (%),[2]; drug 0.1 μM,64%
same,CK ratio (%),[2]; drug 1 μM,22%
same,CK ratio (%),[2]; drug 10 μM,3%
same,Resistance of transformed Arabidopsis thaliana to the drug,"[3]; K31-4-2, Tables 2 and 3, FIGS. 20 to 24",exhibited resistance
same,Rate of emerging of true leaf (%),"[3]; K31-4-2, drug 1.3 nM, day 12 after seeding",89%
same,Rate of emerging of true leaf (%),"[3]; K31-4-2, drug 1.3 nM, day 14 after seeding",100%
same,Rate of emerging of true leaf (%),"[3]; K31-4-2, drug 4.1 nM, day 12 after seeding",100%
same,Rate of emerging of true leaf (%),"[3]; K31-4-2, drug 4.1 nM, day 14 after seeding",100%
same,Rate of emerging of true leaf (%),"[3]; K31-4-2, drug 12 nM, day 12 after seeding",89%
same,Rate of emerging of true leaf (%),"[3]; K31-4-2, drug 12 nM, day 14 after seeding",100%
same,Rate of emerging of true leaf (%),"[3]; K31-4-2, drug 37 nM, day 12 after seeding",100%
same,Rate of emerging of true leaf (%),"[3]; K31-4-2, drug 37 nM, day 14 after seeding",100%
same,Rate of emerging of true leaf (%),"[3]; K31-4-2, drug 110 nM, day 12 after seeding",100%
same,Rate of emerging of true leaf (%),"[3]; K31-4-2, drug 110 nM, day 14 after seeding",100%
same,Rate of emerging of true leaf (%),"[3]; K31-4-2, drug 330 nM, day 12 after seeding",78%
same,Rate of emerging of true leaf (%),"[3]; K31-4-2, drug 330 nM, day 14 after seeding",80%
same,Ratio of sensitivity,"[3]; maximum drug concentration for 40% or more emerging of true leaves, day 12",>28
same,Ratio of sensitivity,"[3]; maximum drug concentration for 80% or more emerging of true leaves, day 14",>80
same,Calluses with extending roots of all redifferentiation calluses,[4]; hormone-free medium containing 0.25 μM BS,73%
same,Root extension rate,[4]; hormone-free medium containing 1 μM BS,28%
same,Redifferentiation efficiency,[4]; redifferentiation medium containing 0.25 μM BS,91%
same,Callus growth,[5],demonstrated to grow
